In publication PMC9267128, “New 2-[(4-Amino-6-N-substituted-1,3,5-triazin-2-yl)methylthio]-N-(imidazolidin-2-ylidene)-4-chloro-5-methylbenzenesulfonamide Derivatives, Design, Synthesis and Anticancer Evaluation” (International Journal of Molecular Sciences, 2022):

Tests used:
HeLa (cervical cancer) = test: MTT cell viability assay, HeLa; format: cell-based, human; settings: for IC50: Homo sapiens, HeLa, MTT assay, 72 h of incubation; for Selectivity Index (SI) HeLa: IC50 value toward HaCaT cells/IC50 value toward HeLa
Summary of the method: (§1)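 HCT-116 and HeLa cells in DMEM/10% FBS exposed 72 h to compounds over 1–100 µM. Viability by MTT (0.5 mg/mL, 2 h, 37 °C), formazan dissolved in DMSO and read at 550 nm; mean ± SD of at least three independent experiments.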

HCT-116 (colon cancer) = test: MTT cell viability assay, HCT-116; format: cell-based, human; settings: for IC50: MTT assay, 72 h of incubation; for Selectivity Index (SI) HCT-116: IC50 value toward HaCaT cells/IC50 value toward HCT-116
Summary of the method: as §1

[1] = system: T47D (breast cancer cell line); test: MTT assay, mutant p53 breast cancer cells T47D; format: cell-based; settings: Homo sapiens, T47D, 72 h of incubation
Protocol: (§2) Thus, the ability of the selected compounds to exert cytotoxic activity toward cell lines harboring mutant p53 was examined. Compounds displaying a high selectivity index (Table 6) were selected for the analysis of their activity toward ovarian and breast cancer cells with wild-type p53 (A2780, MCF-7) and mutant p53 (SKOV-3, T47D).
(§3) Cell viability was examined using the MTT [3-(4,5-dimethylthiazol-2-yl)-2,5-diphenyltetrazolium bromide] assay. Cells were seeded in 96-well plates at a density of 3 × 10^3 cells/well and treated for 72 h with the tested compounds in the concentration range of 1–100 µM. Then, MTT (0.5 mg/mL) was added to the medium and cells were further incubated for 2 h at 37 °C. In the next stage, cells were lysed with DMSO and the absorbance of the formazan solution was measured at 550 nm with a plate reader (1420 multilabel counter, Victor, Jügesheim, Germany). The experiment was performed in triplicate. Values are expressed as the mean ± SD of at least three independent experiments. Cisplatin was used as a positive control.
(§4) Compounds 48, 62, 134, 138 and 140 were further examined toward MCF7 (breast cancer cell line, ATCC, HTB-22), T47D (breast cancer cell line, DSMZ ACC 739), A2780 (ovarian carcinoma cell line, ECACC, 93112519), and SKOV3 (ovarian carcinoma cell line, ATCC, HTB-77) cells. Cells were grown in Dulbecco’s Modified Eagle Medium (DMEM) supplemented with 10% fetal bovine serum (Thermo Fisher Scientific).

[2] = system: A2780 (ovarian carcinoma cell line); test: MTT assay, wild-type p53 ovarian cancer cells A2780; format: cell-based; settings: Homo sapiens, A2780, 72 h of incubation
Protocol: as §2, §3, §4

[3] = system: SKOV3 (ovarian carcinoma cell line); test: MTT assay, mutant p53 ovarian cancer cells SKOV-3; format: cell-based; settings: Homo sapiens, SK-OV-3, 72 h of incubation
Protocol: as §2, §3, §4

MDM2-p53 interactions = test: Western blot of MDM2 and p53 protein levels in MCF-7 cells; format: cell-based, human; settings: 4 µM and 10 µM, 24-h incubation
Protocol: Thus, the effects of the examined compounds on the inhibition of MDM2-p53 interactions were examined. MDM2 and p53 protein levels were determined with Western blot analysis after the treatment of MCF-7 cells with compounds selected for their high selectivity index (48, 62, 134, 138, and 140). Compounds were examined at different concentrations (4 µM and 10 µM) following a 24-h incubation (Figure 7).
Proteins were transferred to an Immobilon-P PVDF membrane (Merck Millipore, Burlington, MA, USA). The membranes were incubated for 1 h using 5% low-fat milk solution in 1× TBS (50 mM Tris-Cl, pH 7.5, 150 mM NaCl) as a blocking buffer and then overnight at 4 °C in the same blocking solution containing one of the following antibodies: anti-MDM2 (rabbit, Sigma-Aldrich AB-166, Burlington, MA, USA), anti-p53 (rabbit, Sigma-Aldrich S15) or α-tubulin (rabbit, 11H10, Cell Signaling, Danvers, MA, USA). After washing (3 × 10 min in TBS), membranes were incubated for 2 h in room temperature with the adequate HRP-conjugated secondary antibody: goat anti-rabbit IgG (1:5000, Abcam, Cambridge, UK; cat. 97051). Membranes were developed using an HRP detection kit WesternBright Quantum (Advansta, San Jose, CA, USA; cat. K-12042).

MCF-7 (breast cancer) = test: MTT cell viability assay, MCF-7; format: cell-based, human; settings: for IC50: Homo sapiens, MCF7, 72 h, MTT assay, 72 h of incubation; for Selectivity Index (SI) MCF-7: IC50 value toward HaCaT cells/IC50 value toward MCF-7
Summary of the method: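 Cells in DMEM with 10% FBS, 3 × 10^3 per well, exposed to compounds at 1–100 µM for 72 h at 37 °C. MTT at 0.5 mg/mL for 2 h, formazan dissolved in DMSO and read at 550 nm. Mean ± SD of at least three independent experiments, each in triplicate.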

MCF-7 cells = test: Apoptosis analysis (Annexin V-PE/7-AAD flow cytometry) in MCF-7 cells; format: cell-based, human; settings: MCF-7, 5, 10 and 25 µM, 72 h
Protocol: To confirm this, MCF-7 cells were treated with a concentration range of compounds 140 and 48 for 72 h. Flow cytometric analysis was performed with Annexin V-PE staining. […] The increase in apoptotic cells was mainly evident in the late apoptotic stage (upper right quadrant) (Figure 9).
Levels of apoptosis were measured by flow cytometry using the Annexin V-PE Apoptosis Detection Kit I (BD Biosciences, Belgium) according to the manufacturer’s instructions. Apoptosis was assessed after a 72 h treatment of MCF7 and T47D cells with compounds 48 and 140 in the concentrations of 5, 10 and 25 µM. Proceeding cell treatment, cells were collected, washed with PBS and stained with Annexin V-phycoerythrin (PE) and 7-amino-actinomycin (7-AAD) in Annexin V binding buffer for 15 min at RT in the dark. After staining, cells were diluted in Annexin V binding buffer and analyzed on a BD FACSCalibur flow cytometer (BD Biosciences). At total of 10^4 cells were analyzed from each sample and data were analyzed with Flowing software (version 2.5).

IC50 (HeLa (cervical cancer))	IC50 (HCT-116 (colon cancer); Homo sapiens, HCT-116, 72 h)	IC50 [1]	IC50 [2]	IC50 [3]	IC50 (MCF-7 (breast cancer))	IC50 (HCT-116 (colon cancer))	Structure (SMILES)	Selectivity Index (SI) HeLa (HeLa (cervical cancer))	Selectivity Index (SI) HCT-116 (HCT-116 (colon cancer))	MDM2 and p53 protein levels (MDM2-p53 interactions)	Selectivity Index (SI) MCF-7 (MCF-7 (breast cancer))	apoptotic population of cells (Annexin V-PE) (MCF-7 cells)
25 ± 0.3 µM	6 ± 0.1 µM	4.8 ± 0.1 µM	4 ± 0.1 µM	8.1 ± 0.1 µM	7 ± 0.2 µM	–	Cc1cc(S(=O)(=O)N=C2NCCN2Cc2ccccc2)c(SCc2nc(N)nc(N3CCc4ccccc43)n2)cc1Cl [Compound 48]	1.3	5.5	no changes	4.7	concentration-dependent increase
8 ± 0.5 µM	< 6 µM	5.3 ± 0.1 µM	4.5 ± 0.1 µM	6.6 ± 0.1 µM	10 ± 0.2 µM	5 ± 0.2 µM	Cc1cc(S(=O)(=O)N=C2NCCN2Cc2ccc(C(F)(F)F)cc2)c(SCc2nc(N)nc(N3CCN(Cc4ccccc4)CC3)n2)cc1Cl [Compound 140]	2.7	4.4	no changes	2.2	concentration-dependent increase
